In patent US20230278972A1, “SUBSTITUTED HALOALKYL SULFONANILIDE HERBICIDES” (FMC Corporation, priority 2020, published 2023):
Where two headings read alike, the source gives them in different places.

Columns and labels:
Format in all cases: in vivo
[1] = system: galium (catchweed bedstraw, Galium aparine); assay: Test A postemergence, galium; conditions: Galium, post-emergence, 240 h, Postemergence, 0 to 100 scale (0 no effect, 100 complete control); for pest or weed control at 125 g/ha: 125 g ai/ha; for pest or weed control at 500 g/ha: 500 g ai/ha
In short: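 Preemergence: pigweed seeds in loam soil–sand blend received a directed soil spray of test chemicals in a non-phytotoxic solvent with surfactant. Postemergence: barnyardgrass, wheat and galium in pots of the same soil, 2 to 10 cm tall at one- to two-leaf stage, sprayed with the same formulation.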

[2] = system: barnyardgrass (Echinochloa crus-galli); assay: Test A preemergence, barnyardgrass; conditions: Echinochloa crus-galli, pre-emergence, 240 h, Preemergence; for pest or weed control at 125 g/ha: 125 g ai/ha; for pest or weed control at 500 g/ha: 500 g ai/ha
In short: (§1)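 Preemergence: seeded pots of loam plus sand received a directed soil spray. Postemergence: seedlings at one to two leaves, 2 to 10 cm high, were oversprayed. Each compound was formulated in a non-phytotoxic solvent mix that included a surfactant.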

kochia (Bassia scoparia) [3] = assay: Test A postemergence, kochia; conditions: Bassia scoparia, post-emergence, 240 h, Postemergence, 0 to 100 scale (0 no effect, 100 complete control); for pest or weed control at 125 g/ha: 125 g ai/ha; for pest or weed control at 500 g/ha: 500 g ai/ha
In short: as §1

kochia (Bassia scoparia) [4] = assay: Test A preemergence, kochia; conditions: Bassia scoparia, pre-emergence, 240 h, Preemergence; for pest or weed control at 125 g/ha: 125 g ai/ha; for pest or weed control at 500 g/ha: 500 g ai/ha
In short: as §1

[5] = read-out: Plant response rating, Galium
[6] = visual injury approx. 10 days, read-out: Plant response rating, Galium
[7] = visual injury, 0 to 100 scale (0 no effect, 100 complete control), approx. 10 days, read-out: Plant response rating, Barnyardgrass
[8] = visual injury on 0 to 100 scale (0 no effect, 100 complete control), approximately 10 days, read-out: Barnyardgrass plant response rating
[9] = read-out: Plant response rating, Kochia
[10] = visual injury approx. 10 days, read-out: Plant response rating, Kochia
[11] = visual injury, 0 to 100 scale (0 no effect, 100 complete control), approx. 10 days, read-out: Plant response rating, Kochia
[12] = visual injury on 0 to 100 scale (0 no effect, 100 complete control), approximately 10 days, read-out: Kochia plant response rating
[13] = visual injury vs untreated controls after approx. 10 days, read-out: Galium plant response rating
[14] = 0 to 100 scale (0 no effect, 100 complete control), read-out: Plant response rating, Barnyardgrass
[15] = visual injury vs untreated controls after approx. 10 days, read-out: Kochia plant response rating
[16] = 0 to 100 scale (0 no effect, 100 complete control), read-out: Plant response rating, Kochia

Row | SMILES | pest or weed control at 125 g/ha [1, 5] [%] | pest or weed control at 500 g/ha [1, 6] [%] | pest or weed control at 125 g/ha [2, 7] [%] | pest or weed control at 500 g/ha [2, 8] [%] | pest or weed control at 125 g/ha (kochia (Bassia scoparia) [3]; [9]) [%] | pest or weed control at 500 g/ha (kochia (Bassia scoparia) [3]; [10]) [%] | pest or weed control at 125 g/ha (kochia (Bassia scoparia) [4]; [11]) [%] | pest or weed control at 500 g/ha (kochia (Bassia scoparia) [4]; [12]) [%] | pest or weed control at 125 g/ha [1, 6] [%] | pest or weed control at 500 g/ha [1, 13] [%] | pest or weed control at 125 g/ha [2, 8] [%] | pest or weed control at 500 g/ha [2, 14] [%] | pest or weed control at 125 g/ha (kochia (Bassia scoparia) [3]; [10]) [%] | pest or weed control at 500 g/ha (kochia (Bassia scoparia) [3]; [15]) [%] | pest or weed control at 125 g/ha (kochia (Bassia scoparia) [4]; [12]) [%] | pest or weed control at 500 g/ha (kochia (Bassia scoparia) [4]; [16]) [%]
1 | Cc1cc(C)c(C(=O)N2CCC(F)(F)CC2)cc1NS(=O)(=O)C(F)(F)F [Compound 241, N-[5-[(4,4-Difluoro-1-piperidinyl)carbonyl]-2,4-dimethylphenyl]-1,1,1-trifluoromethanesulfonamide] | 80 | 90 | 100 | 100 | 60 | 90 | 70 | 100 |  |  |  |  |  |  |  | 
2 | Cc1cc(C)c(N(COC(=O)C(C)(C)C)S(=O)(=O)C(F)(F)F)cc1C1=NOC2(CCCC2)C1 [Compound 140, [[2,4-Dimethyl-5-(1-oxa-2-azaspiro[4.4]non-2-en-3-yl)phenyl][(trifluoromethyl)sulfonyl]amino]methyl 2,2-dimethylpropanoate] |  |  |  |  |  |  |  |  | 50 | 70 | 40 | 100 | 10 | 60 | 0 | 70
3 | Cc1cc(Cl)c(NS(=O)(=O)C(F)(F)F)cc1C(=O)N1CCC(F)(F)CC1 [Compound 229, N-[2-Chloro-5-[(4,4-difluoro-1-piperidinyl)carbonyl]-4-methylphenyl]-1,1,1-trifluoromethanesulfonamide] | 90 |  | 70 |  | 60 |  | 80 | 100 |  | 90 |  | 90 |  | 90 |  | 
4 | Cc1cc(C)c(C2=NOC3(CCCC3)C2)cc1NS(=O)(=O)C(F)(F)F [Compound 207, N-[2,4-Dimethyl-5-(1-oxa-2-azaspiro[4.4]non-2-en-3-yl)phenyl]-1,1,1-trifluoromethanesulfonamide] | 50 |  | 90 |  | 20 |  | 90 |  |  | 70 |  | 90 |  | 60 |  | 90
5 | Cc1c(NS(=O)(=O)C(F)(F)F)cc(C(=O)N2CCOCC2)c(C)c1F [Compound 190, 1,1,1-Trifluoro-N-[3-fluoro-2,4-dimethyl-5-(4-morpholinylcarbonyl)phenyl]methanesulfonamide] | 70 |  | 90 |  | 30 |  | 90 |  |  | 90 |  | 100 |  | 70 |  | 100
6 | Cc1cc(C)c(C2=NO[C@@H]3CCC[C@H]23)cc1NS(=O)(=O)C(F)(F)F [Compound 103, N-[2,4-Dimethyl-5-[(3aR,6aR)-3a,5,6,6a-tetrahydro-4H-cyclopent[d]isoxazol-3-yl]phenyl]-1,1,1-trifluoromethanesulfonamide] |  |  |  |  |  |  |  |  | 90 | 100 | 90 | 90 | 70 | 80 | 80 | 90
7 | Cc1cc(C)c(N(COC(=O)C(C)(C)C)S(=O)(=O)C(F)(F)F)cc1C1=NOC2(CCCCC2)C1 [Compound 159, [[2,4-Dimethyl-5-(1-oxa-2-azaspiro[4.5]dec-2-en-3-yl)phenyl][(trifluoromethyl)sulfonyl]amino]methyl 2,2-dimethylpropanoate] | 80 |  |  |  | 20 |  |  |  |  | 90 | 40 | 60 |  | 40 | 40 | 70
